Results published in patent US11957766B2, “HNQO1-activatable fluorescent probe for imaging cancer cells in-vitro and in-vivo” (Texas Tech University System, priority 2019, dated 2024).
“Also recorded” adds a separate entry of the source.

Experiments:
[1] = Photophysical property of the fluorophore ASM; format: physicochemical
Text: Design, preparation, and characterization of the NIR-ASM fluorescent probe. Imaging agents emitting near-infrared fluorescence enable deeper penetration with low phototoxicity and high signal-to-background ratios due to minimal tissue auto-fluorescence, which is a prime requirement for in vivo imaging studies.^40,41 Accordingly, the inventors designed an NQO1 activatable near-infrared fluorescent probe (NIR-ASM) by attaching a trimethyl-lock QPA with (E)-2-(3-(4-aminostyryl)-5,5-dimethylcyclohex-2-en-1-ylidene)malononitrile (ASM) for molecular imaging of cancer cells in vivo (FIG. 9A). The fluorophore ASM was used in this study because of its strong NIR fluorescence signal with substantial Stokes shift (˜190 nm), to eliminate background interferences by avoiding reabsorption of emitted photons. […] NQO1 is a ubiquitous cytosolic two-electron reductase that catalyzes the reduction of quinone substrates in the presence of NADH. Upon interaction with NQO1 in the presence of NADH, QPA present in non-fluorescent NIR-ASM undergoes two-electron reduction to form an o-hydroxydihydrocinnamic acid derivative that undergoes rapid lactonization under physiological conditions to yield dihydrocoumarin, 6-hydroxy-4,4,5,7,8-pentamethylchroman-2-one (HPC) along with highly fluorescent ASM. […]

[2] = tested on: NQO1 in A549 and H460 cells; assay: ES936 pretreatment of cells before NIR-ASM (microscopy and flow cytometry); format: cell-based, human
Method: Chemical and genetic approaches confirm the specificity of NIR-ASM for NQO1 in live tumor cells. A fluorescence probe with high sensitivity, simple operation, and excellent specificity will be an asset for the detection of NQO1 in situ. To assess the substrate selectivity of NIR-ASM for NQO1, both A549 and H460 cells were pretreated with 100 nM of NQO1 inhibitor ES936 for 6 h, before incubating with 10 μM NIR-ASM. […] The effect of ES936 on endogenous NQO1 activity and subsequent reactivity with NIR-ASM was also determined by flow cytometry. […] The presence of NQO1 protein in the transfected MDA-MB-231 cells and its absence in the untransfected control was confirmed by immunoblotting (FIG. 13E). Subsequently, the NQO1-negative and positive MDA-MB-231 cell lines were incubated with NIR-ASM and analyzed by fluorescence microscopy and flow cytometry for activation of the probe.
Fluorescence imaging. Both cancer and normal cells were seeded into 6-well plates and cultured overnight in respective media at 37° C. […] Finally, the medium was replaced with PBS and the live cells were imaged using a multiphoton confocal fluorescence microscope (λex/em=488/644 nm). […]
Flow cytometry analysis. The endogenous NQO1 activity of cancer cells and normal cells was determined by flow cytometry after NIR-ASM exposure. […] About 1×10^4 cells were analyzed by flow cytometry (λex=488 nm).

NQO1 [3] = target: T1, NQO1 (Homo sapiens, UniProt P15559); assay: Effect of NQO1 inhibitor ES936 on NQO1 activation of NIR-ASM; format: biochemical; set-up: purchased Sigma-Aldrich D1515; settings: ES936 0-100 nM, NQO1 pretreated
Method: Selectivity of NIR-ASM. The selectivity of NIR-ASM probe was studied by examining its reactivity towards various biomolecules and antioxidant enzymes such as the glutathione, aldehyde dehydrogenase 1, gamma-glutamyl transferase, glutathione peroxidase, apurinic/apyrimidinic endonuclease, cystathionine-β-synthase, cathepsin L, glutathione S-transferase, NADH alone and the combination of nitroreductase and NQO1.
NQO1 inhibitor efficiency evaluation. NQO1 inhibitor efficiency was evaluated using specific NQO1 inhibitor ES936 under in vitro conditions. 2.5 μg/mL of NQO1 was incubated with different concentrations of ES936 (0-100 nM) in the presence of 100 μM NADH at 37° C. Fluorescence emission was recorded after 30 min of incubation (λex. 460 nm).

NQO1 [4] = target: T1, NQO1; assay: Inhibitory effect of ES936 on hNQO1 activation of NQ-DCP; format: biochemical; settings: ES936 0-100 nM, enzyme pre-treated, 30 min
Method: Selectivity of NQ-DCP Towards hNQO1. The specificity of NQ-DCP probe towards hNQO1 was studied by determining its reactivity towards various biomolecules such as the glutathione (GSH, 1 mM), aldehyde dehydrogenase 1 (ALDH1A1, 2.5 μg/mL), gamma-glutamyl transferase (GGT, 10 U), glutathione Peroxidase (GPx, 10 U), apurinic/apyrimidinic endonuclease (APE1, 10 U), cystathionine-β-synthase (CBS, 2 μg/mL), cathepsin L (CTSL, 2 μg/mL), glutathione S-transferase (GST-pi, 2 μg/mL), nitroreductase (NTR, 2 μg/mL) and NADH (100 μM) alone or the combination of and NQO1 (2.5 μg/mL). […] To gain more insight into the specificity of the probe towards hNQO1, the enzyme was pre-treated with ES936 (0-100 nM), a well-known hNQO1 inhibitor [39] and then incubated with NQ-DCP.
Evaluation of Inhibitor Efficiency. To evaluate the inhibitory efficiency of ES936 towards hNQO1 under in vitro conditions, different concentrations of ES936 (0-100 nM) incubated with 2.0 μg/mL of NQO1, 100 μM NADPH in PBS with 0.1% BSA (pH 7.4) at 37° C. Fluorescence emission was recorded after 30 min of incubation (λex=420 nm).

hNQO1 in T98G cells = assay: ES936 pretreatment of cells before NQ-DCP, fluorescence microscopy; format: cell-based, human; settings: 100 nM ES936 for 6 h, then 10 μM NQ-DCP
Method: Evaluation of Specificity in Cancer Cells. To show the substrate selectivity of NQ-DCP for hNQO1, T98G cells were pretreated with 100 nM of NQO1 inhibitor ES936 for 6 h and incubated 10 μM of NQ-DCP.
Cell Culture, Fluorescence Imaging, and Flow Cytometry Analysis. Brain tumor cells and astrocytes were grown in Dulbecco's modified Eagle's (DMEM) medium containing 10% Fetal Bovine Serum and 1% penicillin/streptomycin in a humidified atmosphere of 5% CO2 at 37° C. For fluorescence imaging, initially, cells were seeded into 6-well plate and cultured overnight in respective media at 37° C. Media was replaced with fresh medium containing 10 μM NQ-DCP and incubated at 37° C. for 60 min and then the medium was replaced with PBS and live cells were imaged using a fluorescence microscope. For inhibitor study, cells were pretreated with NQO1 inhibitor ES936 (100 nM) for 6 h before adding the NQ-DCP. For determining endogenous hNQO1 activity in cancer cells using flow cytometry, about 10×10^4 cells were incubated with 10 μM of NQ-DCP for 60 min and were analyzed using flow cytometry.

T1 sequence (P15559 whole entry): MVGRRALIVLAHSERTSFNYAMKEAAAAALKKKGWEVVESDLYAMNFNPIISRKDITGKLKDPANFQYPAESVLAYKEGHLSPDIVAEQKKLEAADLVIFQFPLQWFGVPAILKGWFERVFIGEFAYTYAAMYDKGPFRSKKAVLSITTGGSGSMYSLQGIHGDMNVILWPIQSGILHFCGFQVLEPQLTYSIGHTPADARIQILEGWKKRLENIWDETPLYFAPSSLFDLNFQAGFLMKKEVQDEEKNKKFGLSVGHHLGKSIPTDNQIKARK

Row | Stokes shift [1] | SMILES | effect on NIR-ASM fluorescence in cells (microscopy) ([2]; 100 nM ES936 for 6 h, then 10 μM NIR-ASM) | effect on NIR-ASM induced fluorescence intensity (flow cytometry) ([2]; 100 nM ES936 pretreated tumor cells) | effect on the fluorescence response of NIR-ASM to NQO1 (NQO1 [3]) | effect on the fluorescence response of NQ-DCP to hNQO1 (NQO1 [4]) | effect on NQ-DCP fluorescence in cells (hNQO1 in T98G cells)
1 | ~190 nm | CC1(C)CC(/C=C/c2ccc(N)cc2)=CC(=C(C#N)C#N)C1 [ASM, (E)-2-(3-(4-aminostyryl)-5,5-dimethylcyclohex-2-en-1-ylidene) malononitrile] |  |  |  |  | 
2 |  | COC1=CC(=O)c2c(c(COc3ccc([N+](=O)[O-])cc3)c(C)n2C)C1=O [ES936] | completely blocked the NIR-ASM fluorescence | significantly decreased | effectively suppressed the fluorescence response in a concentration-dependent fashion | effectively suppressed the fluorescence response in a concentration-dependent manner; also recorded: completely blocked the NQ-DCP fluorescence | completely blocked the NQ-DCP fluorescence
